Data reported in ChEMBL document CHEMBL1142070, “Antimicrobial susceptibility and synergy studies of Burkholderia cepacia complex isolated from patients with cystic fibrosis” (2007).
Converted amounts (≈) assume the structure as drawn.

Key:
Type in all cases: functional
Burkholderia cepacia [1] = assay: Antimicrobial susceptibility of Burkholderia cepacia complex isolated from cystic fibrosis patient assessed as percent susceptible isolates
Burkholderia cepacia [2] = assay: Antimicrobial susceptibility of Burkholderia cepacia complex isolated from cystic fibrosis patient assessed as percent resistant isolates
Burkholderia cepacia [3] = assay: Antimicrobial activity against Burkholderia cepacia complex isolated from cystic fibrosis patient by broth microdilution assay

Row | Structure (SMILES) | Activity (Burkholderia cepacia [1]) [%] | Activity (Burkholderia cepacia [2]) [%] | MIC50 (Burkholderia cepacia [3]) [µg/mL] | MIC90 (Burkholderia cepacia [3]) [µg/mL]
1 | NCC[C@H](O)C(=O)N[C@@H]1C[C@H](N)[C@@H](O[C@H]2O[C@H](CN)[C@@H](O)[C@H](O)[C@H]2O)[C@H](O)[C@H]1O[C@H]1O[C@H](CO)[C@@H](O)[C@H](N)[C@H]1O [AMIKACIN] | 4 | – | – | –
2 | C[C@H]1[C@H](NC(=O)/C(=N\OC(C)(C)C(=O)O)c2csc(N)n2)C(=O)N1S(=O)(=O)O [AZTREONAM] | 2 | – | – | –
3 | CO/N=C(\C(=O)N[C@@H]1C(=O)N2C(C(=O)[O-])=C(C[N+]3(C)CCCC3)CS[C@H]12)c1csc(N)n1 [CEFEPIME] | 8 | – | – | –
4 | CC(C)(O/N=C(\C(=O)N[C@@H]1C(=O)N2C(C(=O)[O-])=C(C[n+]3ccccc3)CS[C@H]12)c1csc(N)n1)C(=O)O [CEFTAZIDIME] | 23 | 65 | 32 (≈ 58.5 µM) | 128 (≈ 234 µM)
5 | O=C(N[C@H](CO)[C@H](O)c1ccc([N+](=O)[O-])cc1)C(Cl)Cl [CHLORAMPHENICOL] | 5 | 85 | 64 (≈ 198 µM) | > 64
6 | O=C(O)c1cn(C2CC2)c2cc(N3CCNCC3)c(F)cc2c1=O [CIPROFLOXACIN] | 5 | – | – | –
7 | C[C@H]1c2cccc(O)c2C(=O)C2=C(O)[C@]3(O)C(=O)C(C(N)=O)=C(O)[C@@H](N(C)C)[C@@H]3[C@@H](O)[C@@H]21.O [DOXYCYCLINE] | 22 | 61 | 16 | > 32
8 | C[C@@H](O)[C@H]1C(=O)N2C(C(=O)O)=C(SCCNC=N)C[C@H]12 [IMIPENEM ANHYDROUS] | 7 | – | – | –
9 | C[C@@H](O)[C@H]1C(=O)N2C(C(=O)O)=C(S[C@@H]3CN[C@H](C(=O)N(C)C)C3)[C@H](C)[C@H]12 [MEROPENEM] | 26 | 48 | 8 (≈ 20.9 µM) | 32 (≈ 83.4 µM)
10 | CN(C)c1ccc(O)c2c1C[C@H]1C[C@H]3[C@H](N(C)C)C(O)=C(C(N)=O)C(=O)[C@@]3(O)C(O)=C1C2=O [MINOCYCLINE] | 38 | 37 | 8 (≈ 17.5 µM) | 32 (≈ 69.9 µM)
11 | CCN1CCN(C(=O)N[C@@H](C(=O)N[C@@H]2C(=O)N3[C@@H]2SC(C)(C)[C@@H]3C(=O)O)c2ccccc2)C(=O)C1=O [PIPERACILLIN] | 11 | 80 | 256 (≈ 495 µM) | > 256
12 | CO[C@H]1/C=C/O[C@@]2(C)Oc3c(C)c(O)c4c(O)c(c(/C=N/N5CCN(C)CC5)c(O)c4c3C2=O)NC(=O)/C(C)=C\C=C\[C@H](C)[C@H](O)[C@@H](C)[C@@H](O)[C@@H](C)[C@H](OC(C)=O)[C@@H]1C [RIFAMPIN] | 1 | – | – | –
13 | CC1(C)S[C@@H]2[C@H](NC(=O)[C@H](C(=O)O)c3ccsc3)C(=O)N2[C@H]1C(=O)O [TICARCILLIN] | 2 | – | – | –
